Results: patent US4208398A, “Technetium-labeled complexes, production and use thereof” (priority 1975, dated 1980)

Columns and labels:
[1] = biological distribution of the 99m-Tc complex in mice as a function of time; assay type: in vivo, white female Swiss Webster mice; settings: for Percentage of total 99m-Tc in mice, Carcass / Percentage of total 99m-Tc in mice, Gut / Percentage of total 99m-Tc in mice, Kidneys / Percentage of total 99m-Tc in mice, Liver / Percentage of total 99m-Tc in mice, Lungs / Percentage of total 99m-Tc in mice, Pancreas / Percentage of total 99m-Tc in mice, Spleen / Percentage of total 99m-Tc in mice, Stomach / Percentage of total 99m-Tc in mice, Spleen & Pancreas / Percentage of total 99m-Tc in mice, Urine: i.v. tail vein
Protocol: The mice were injected intravenously via the tail vein, sacrificed after appropriate time periods, then dissected. The isolated organs were assayed for radioactivity using a Packard series 410 A Auto Gamma Spectrometer.
Each data point represents an average value from three mice taken in three separate distribution studies.
The mice were tested and assayed for radioactivity as described in Example 1.

[2] = kidney imaging in dogs with a gamma radiation detecting camera; assay type: in vivo; settings: one-half hour after injection
Protocol: Next, 9 ml. of saline were added to the glass vial (held under N2 atmosphere). The pH of the vial contents was raised to pH 7.4, using 1 molar NaOH. The solution was transferred to a pharmaceutical vial, capped and sealed. Using a needle inserted through the rubber seal septum, the vial was evacuated to 5 mm. Hg pressure and purged with nitrogen to 1 atmospheric pressure. The vial contents were ready for injection and kidney imaging.

[3] = water/octanol partition coefficient Ln(aw/ao) of the technetium complex; assay type: physicochemical; settings: for Partition Coefficient = Ln(aw/ao): 27000 µM
Protocol: This ratio of distribution is quite easily followed by determining the activity of the respective phases of a two-phase system, in which the complex is added as a water solution to octanol in equal parts. […] (wherein aw is the radioactivity distributed in the aqueous phase and ao is the radioactivity distributed in the organic phase, at a pH in the range between pH 4 and pH 9), after thorough agitation to admix the phases followed by standing to accomplish complete separation.
The blood is on the mildly alkaline side at pH=7.4, while the urine, etc., is about pH 5 to pH 8.

[4] = in vivo
[5] = mouse kidney distribution of Tc-99m pertechnetate (comparison); assay type: in vivo; settings: at any time during a 24 hour period
[6] = localization of technetium activity in a mouse after injection of the complex into the blood stream; assay type: in vivo; settings: one hour after injection into the blood stream
Protocol: One hour after this complex was injected into the blood stream of a mouse, about 24 percent of technetium activity had localized in its kidneys.

99m-Tc-dimercaptosuccinic acid
Percentage of total 99m-Tc in mice, Carcass ([1]; 0 hr): 40.9 Percentage of total 99m-Tc | Percentage of total 99m-Tc in mice, Carcass ([1]; 0.5 hr): 30.4 Percentage of total 99m-Tc | Percentage of total 99m-Tc in mice, Carcass ([1]; 1.0 hr): 26.9 Percentage of total 99m-Tc | Percentage of total 99m-Tc in mice, Carcass ([1]; 2.0 hr): 20.4 Percentage of total 99m-Tc | Percentage of total 99m-Tc in mice, Carcass ([1]; 4.0 hr): 21.3 Percentage of total 99m-Tc | Percentage of total 99m-Tc in mice, Carcass ([1]; 24.0 hr): 8.0 Percentage of total 99m-Tc | Percentage of total 99m-Tc in mice, Gut ([1]; 0 hr): 10.1 Percentage of total 99m-Tc | Percentage of total 99m-Tc in mice, Gut ([1]; 0.5 hr): 6.1 Percentage of total 99m-Tc | Percentage of total 99m-Tc in mice, Gut ([1]; 1.0 hr): 7.0 Percentage of total 99m-Tc | Percentage of total 99m-Tc in mice, Gut ([1]; 2.0 hr): 4.3 Percentage of total 99m-Tc | Percentage of total 99m-Tc in mice, Gut ([1]; 4.0 hr): 3.0 Percentage of total 99m-Tc | Percentage of total 99m-Tc in mice, Gut ([1]; 24.0 hr): 1.7 Percentage of total 99m-Tc | Percentage of total 99m-Tc in mice, Kidneys ([1]; 0 hr): 9.4 Percentage of total 99m-Tc | Percentage of total 99m-Tc in mice, Kidneys ([1]; 0.5 hr): 29.3 Percentage of total 99m-Tc | Percentage of total 99m-Tc in mice, Kidneys ([1]; 1.0 hr): 39.5 Percentage of total 99m-Tc | Percentage of total 99m-Tc in mice, Kidneys ([1]; 2.0 hr): 45.6 Percentage of total 99m-Tc | Percentage of total 99m-Tc in mice, Kidneys ([1]; 4.0 hr): 54.8 Percentage of total 99m-Tc | Percentage of total 99m-Tc in mice, Kidneys ([1]; 24.0 hr): 75.5 Percentage of total 99m-Tc | Percentage of total 99m-Tc in mice, Liver ([1]; 0 hr): 28.6 Percentage of total 99m-Tc | Percentage of total 99m-Tc in mice, Liver ([1]; 0.5 hr): 12.8 Percentage of total 99m-Tc | Percentage of total 99m-Tc in mice, Liver ([1]; 1.0 hr): 9.4 Percentage of total 99m-Tc | Percentage of total 99m-Tc in mice, Liver ([1]; 2.0 hr): 6.8 Percentage of total 99m-Tc | Percentage of total 99m-Tc in mice, Liver ([1]; 4.0 hr): 3.8 Percentage of total 99m-Tc | Percentage of total 99m-Tc in mice, Liver ([1]; 24.0 hr): 2.7 Percentage of total 99m-Tc | Percentage of total 99m-Tc in mice, Lungs ([1]; 0 hr): 7.4 Percentage of total 99m-Tc | Percentage of total 99m-Tc in mice, Lungs ([1]; 0.5 hr): 2.3 Percentage of total 99m-Tc | Percentage of total 99m-Tc in mice, Lungs ([1]; 1.0 hr): 1.7 Percentage of total 99m-Tc | Percentage of total 99m-Tc in mice, Lungs ([1]; 2.0 hr): 0.8 Percentage of total 99m-Tc | Percentage of total 99m-Tc in mice, Lungs ([1]; 4.0 hr): 0.7 Percentage of total 99m-Tc | Percentage of total 99m-Tc in mice, Lungs ([1]; 24.0 hr): 0.0 Percentage of total 99m-Tc | Percentage of total 99m-Tc in mice, Pancreas ([1]; 0 hr): 1.4 Percentage of total 99m-Tc | Percentage of total 99m-Tc in mice, Pancreas ([1]; 0.5 hr): 0.7 Percentage of total 99m-Tc | Percentage of total 99m-Tc in mice, Pancreas ([1]; 1.0 hr): 0.4 Percentage of total 99m-Tc | Percentage of total 99m-Tc in mice, Pancreas ([1]; 2.0 hr): 0.3 Percentage of total 99m-Tc | Percentage of total 99m-Tc in mice, Pancreas ([1]; 4.0 hr): 0.2 Percentage of total 99m-Tc | Percentage of total 99m-Tc in mice, Pancreas ([1]; 24.0 hr): 0.2 Percentage of total 99m-Tc | Percentage of total 99m-Tc in mice, Spleen ([1]; 0 hr): 0.3 Percentage of total 99m-Tc | Percentage of total 99m-Tc in mice, Spleen ([1]; 0.5 hr): 0.4 Percentage of total 99m-Tc | Percentage of total 99m-Tc in mice, Spleen ([1]; 1.0 hr): 0.2 Percentage of total 99m-Tc | Percentage of total 99m-Tc in mice, Spleen ([1]; 2.0 hr): 0.3 Percentage of total 99m-Tc | Percentage of total 99m-Tc in mice, Spleen ([1]; 4.0 hr): 0.1 Percentage of total 99m-Tc | Percentage of total 99m-Tc in mice, Spleen ([1]; 24.0 hr): 0.1 Percentage of total 99m-Tc | Percentage of total 99m-Tc in mice, Stomach ([1]; 0 hr): 1.8 Percentage of total 99m-Tc | Percentage of total 99m-Tc in mice, Stomach ([1]; 0.5 hr): 1.1 Percentage of total 99m-Tc | Percentage of total 99m-Tc in mice, Stomach ([1]; 1.0 hr): 1.2 Percentage of total 99m-Tc | Percentage of total 99m-Tc in mice, Stomach ([1]; 2.0 hr): 0.5 Percentage of total 99m-Tc | Percentage of total 99m-Tc in mice, Stomach ([1]; 4.0 hr): 0.4 Percentage of total 99m-Tc | Percentage of total 99m-Tc in mice, Stomach ([1]; 24.0 hr): 0.4 Percentage of total 99m-Tc | accumulation of activity in the animal's kidneys ([1]; mice, immediately after injection to 24 hour): begins to accumulate in the animal's kidneys immediately after injection of the Tc-DMSA complex and continues to concentrate during a 24 hour period | kidney images [2]: Good kidney images | Partition Coefficient = Ln(aw/ao) ([3]; pH 4): 6.0 | Partition Coefficient = Ln(aw/ao) ([3]; pH 5): 6.8 | Partition Coefficient = Ln(aw/ao) ([3]; pH 6): 7.6 | Partition Coefficient = Ln(aw/ao) ([3]; pH 7): 8.5 | Partition Coefficient = Ln(aw/ao) ([3]; pH 8): 8.2 | Partition Coefficient = Ln(aw/ao) ([3]; pH 9): 8.1

99m-Tc-thioglucose
Percentage of total 99m-Tc in mice, Carcass ([1]; 0 hr): 53.1 Percentage of total 99m-Tc | Percentage of total 99m-Tc in mice, Carcass ([1]; 0.5 hr): 1.5 Percentage of total 99m-Tc | Percentage of total 99m-Tc in mice, Carcass ([1]; 1.0 hr): 1.4 Percentage of total 99m-Tc | Percentage of total 99m-Tc in mice, Gut ([1]; 0 hr): 13.3 Percentage of total 99m-Tc | Percentage of total 99m-Tc in mice, Gut ([1]; 0.5 hr): 5.5 Percentage of total 99m-Tc | Percentage of total 99m-Tc in mice, Gut ([1]; 1.0 hr): 1.1 Percentage of total 99m-Tc | Percentage of total 99m-Tc in mice, Kidneys ([1]; 0 hr): 9.0 Percentage of total 99m-Tc | Percentage of total 99m-Tc in mice, Kidneys ([1]; 0.5 hr): 2.8 Percentage of total 99m-Tc | Percentage of total 99m-Tc in mice, Kidneys ([1]; 1.0 hr): 0.4 Percentage of total 99m-Tc | Percentage of total 99m-Tc in mice, Liver ([1]; 0 hr): 18.9 Percentage of total 99m-Tc | Percentage of total 99m-Tc in mice, Liver ([1]; 0.5 hr): 2.1 Percentage of total 99m-Tc | Percentage of total 99m-Tc in mice, Liver ([1]; 1.0 hr): 3.3 Percentage of total 99m-Tc | Percentage of total 99m-Tc in mice, Lungs ([1]; 0 hr): 2.9 Percentage of total 99m-Tc | Percentage of total 99m-Tc in mice, Lungs ([1]; 0.5 hr): 0.3 Percentage of total 99m-Tc | Percentage of total 99m-Tc in mice, Lungs ([1]; 1.0 hr): 0.08 Percentage of total 99m-Tc | Percentage of total 99m-Tc in mice, Spleen & Pancreas ([1]; 0 hr): 2.1 Percentage of total 99m-Tc | Percentage of total 99m-Tc in mice, Spleen & Pancreas ([1]; 0.5 hr): 0.1 Percentage of total 99m-Tc | Percentage of total 99m-Tc in mice, Spleen & Pancreas ([1]; 1 hr): 0.2 Percentage of total 99m-Tc | Percentage of total 99m-Tc in mice, Stomach ([1]; 0 hr): 0.8 Percentage of total 99m-Tc | Percentage of total 99m-Tc in mice, Stomach ([1]; 0.5 hr): 0.8 Percentage of total 99m-Tc | Percentage of total 99m-Tc in mice, Stomach ([1]; 1.0 hr): 0.06 Percentage of total 99m-Tc | Percentage of total 99m-Tc in mice, Urine ([1]; 0 hr): 0.0 Percentage of total 99m-Tc | Percentage of total 99m-Tc in mice, Urine ([1]; 0.5 hr): 89.9 Percentage of total 99m-Tc | Percentage of total 99m-Tc in mice, Urine ([1]; 1 hr): 93.5 Percentage of total 99m-Tc | elimination from the kidneys ([1]; mice, 0-1 hr): eliminated from the kidneys of the mice very rapidly | clearance from kidney tissue [4]: rapidly cleared from kidney tissue

[O]=[99Tc](=[O])(=[O])[O-] [Tc-99m pertechnetate]
maximum kidney concentration of Tc-99m pertechnetate [5]: ≤ 3%

technetium-mercaptoacetic acid
technetium activity found in urine [6]: A large part of the remaining activity | technetium activity localized in kidneys [6]: about 24%

Technetium-mercaptosuccinic Acid [^99m Tc-mercapto succinic acid]
clearance from kidney tissue [4]: rapidly cleared from kidney tissue

Technetium-3-mercaptopropanoic Acid
Partition Coefficient - Ln(aw/ao) ([3]; pH 4): 2.4 | Partition Coefficient - Ln(aw/ao) ([3]; pH 5): 2.7 | Partition Coefficient - Ln(aw/ao) ([3]; pH 6): 3.1 | Partition Coefficient - Ln(aw/ao) ([3]; pH 7): 3.6 | Partition Coefficient - Ln(aw/ao) ([3]; pH 8): 4.1 | Partition Coefficient - Ln(aw/ao) ([3]; pH 9): 4.7
